Legend:
CaCo-2 cells [1] = test: Cytotoxicity assay (Cell Counting Kit-8) in CaCo-2 cells; format: cell-based, human; conditions: up to 10 µM
Experimental: (§1) To determine the overall cytotoxicity of the tested compounds, Vero cells were cultured for 24 h in 96-well plates to form a confluent monolayer, and then were treated with the tested compounds at concentrations of 2 and 10 µM. After 48 h of cultivation in the dark at 37 °C under 5% CO2, the cell culture medium was aspirated. The potential cytotoxicity of the tested perylene derivatives was determined based on cell viability using Cell Counting Kit-8 (Dojindo Molecular Technologies, Munich, Germany) according to the manufacturer's instructions. The cell viabilities of compound-treated Vero cells were compared with those of control DMSO-treated cells. We also used the above-described protocol to assess the cytotoxicity of the selected perylene antivirals, at concentrations ranging from 0 to 10 µM, in CaCo-2 and CRFK cells.

CRFK cells = test: Cytotoxicity assay (Cell Counting Kit-8) in CRFK cells; format: cell-based, Felis catus; conditions: up to 10 µM
Experimental: as §1

[2] = ROS generation rate / quantum yield, DPBF bleaching in methanol; format: physicochemical; conditions: in methanol, DPBF trap, 450–470 nm illumination, riboflavin as reference
From the text: The ROS generation rate was estimated using the spectrophotometric method, based on the absorption changes of 1,3-diphenylisobenzofuran (DPBF, Sigma Aldrich, Germany) in methanol solution. Irreversible oxidation of DPBF by singlet oxygen results in peroxide formation, and DPBF bleaching. When light of 400–450 nm was used as actinic, DPBF bleaching occurred without any photosensitizer (PS) in solution. Therefore, to study photosensitized ROS generation, we used a white MCWHLP1 LED (Thorlabs, USA) with filters to limit the radiation to the 450–470 nm range (5.5 mW/cm^2).
Spectrophotometric measurements were performed in a Qpod 2e (Quantum Northwest, USA) thermostated cuvette holder at 25 °C with magnetic stirring (500 rpm). Absorption spectra were recorded using a MayaPro spectrophotometer (Ocean Optics, USA) and a stabilized white light source with a SLS201L tungsten lamp (Thorlabs, USA). Illumination was uniform over the entire volume of the cuvette, to prevent artifacts associated with the diffusion of non-reacted components into the illuminated volume of the cuvette. In this case, the rate of irreversible bleaching of DPBF (412 nm) was the same under both continuous and pulsed irradiation with equal total irradiation time. Illumination was performed in a pulsed mode (Fig. S5A), with 1 s of illumination followed by 5 s of dark adaptation, during which the absorption spectrum of the PS-DPBF solution was recorded. Data processing was performed as previously described ([Gvozdev et al., 2020]).

CaCo-2 cells [3] = test: Cellular stress marker expression by RT-qPCR in CaCo-2 cells; format: cell-based, human
Experimental: RT-qPCR was performed to evaluate changes in the gene expression of cellular stress markers. […] Previous publications report the primer sequences and numbers of the Universal Probe Library (UPL; Roche Life Sciences, Germany) used for detection of ATF3, CDKN1A (p21), CYP1A1, DDIT3, HMOX1, HSPA1B (HSP70), and HSPA5 mRNAs ([Procházková et al., 2018]; [Šimečková et al., 2020]). […] TaqMan™ Gene Expression Assays (Thermo Fisher Scientific, Waltham, MA, USA) were used to determine the levels of FGF21 (Hs00173927_m1), GADD45A (Hs00169255_m1), GDF15 (Hs00171132_m1), and SRXN1 (Hs00607800_m1). The amplification was run in a 10-µL reaction mixture containing 1 µL of sample, using Kapa Probe Fast One-Step (Kapa Biosystems Pty, Cape Town, South Africa) on a LightCycler® 480 System (Roche Diagnostics, Czech Republic) using the previously published sequence ([Procházková et al., 2018]). Reference gene qPCR assays (Generi Biotech, Hradec Králové, Czech Republic) were used for the following housekeeping genes: human β2-Microglobulin (B2M; #3030), hydroxymethylbilane synthase (HMBS; #3032), and RNA polymerase II subunit A (POLR2A; #3035). We used an average of three reference gene Cp values to calculate the change in gene expression using the comparative threshold cycle method ([Schmittgen and Livak, 2008]).

**Q.** For `CC(C)(C)C(=O)OCn1c(=O)c(C#Cc2ccc3c4cccc5cccc(c6cccc2c63)c54)cn(CC(=O)N(CCO)CCO)c1=O` [Compound 13], which “tolerability by CaCo-2 cells” value (CaCo-2 cells [1]) is on record?
**A.** well-tolerated

**Q.** And the “tolerability by CRFK cells” value (CRFK cells)?
**A.** well-tolerated

**Q.** What about the “φROS (ROS generation quantum yield)” value [2] of the same molecule?
**A.** 19.1 ± 0.2%

**Q.** What about the CYP1A1 expression (CaCo-2 cells [3]; CaCo-2 cells, 10 µM, all tested incubation periods) of the same molecule?
**A.** significantly decreased

**Q.** And the “expression of HMOX1, SRXN1, TXNRD1 (oxidative stress)” value (CaCo-2 cells [3]; CaCo-2 cells, 5, 24 and 48 h)?
**A.** did not increase

**Q.** What about the “expression of HSPA5, DDIT3, HSPA1B (HSP70), CDKN1A (p21), GADD45A” value (CaCo-2 cells [3]; CaCo-2 cells, 5, 24 and 48 h) of the same molecule?
**A.** no changes

**Q.** And the “expression of early toxicity markers (ATF3, FGF21, GDF15)” value (CaCo-2 cells [3]; CaCo-2 cells, 5, 24 and 48 h)?
**A.** did not induce
